Laboratory results taken from patent US9012651B2, “TRPV3 modulators” (AbbVie Inc., priority 2011, dated 2015).

Target: human TRPV3 receptors (Homo sapiens (Human), UniProt Q8NET8)
Test: Calcium flux assay (FLIPR TETRA), inhibition of the 2-APB response
Assay type: cell-based
Settings: recombinant HEK293 cells stably expressing TRPV3, Calcium-4 dye, 2-APB at its EC80
Outline: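 Responses are given relative to the maximal 2-APB signal in the absence of compound, using peak fluorescence over baseline. Measured by FLIPR Tetra calcium flux in stable human and mouse TRPV3 HEK293 cells after 90-120 min dark dye incubation.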

Chain of human TRPV3 receptors (Q8NET8 whole entry): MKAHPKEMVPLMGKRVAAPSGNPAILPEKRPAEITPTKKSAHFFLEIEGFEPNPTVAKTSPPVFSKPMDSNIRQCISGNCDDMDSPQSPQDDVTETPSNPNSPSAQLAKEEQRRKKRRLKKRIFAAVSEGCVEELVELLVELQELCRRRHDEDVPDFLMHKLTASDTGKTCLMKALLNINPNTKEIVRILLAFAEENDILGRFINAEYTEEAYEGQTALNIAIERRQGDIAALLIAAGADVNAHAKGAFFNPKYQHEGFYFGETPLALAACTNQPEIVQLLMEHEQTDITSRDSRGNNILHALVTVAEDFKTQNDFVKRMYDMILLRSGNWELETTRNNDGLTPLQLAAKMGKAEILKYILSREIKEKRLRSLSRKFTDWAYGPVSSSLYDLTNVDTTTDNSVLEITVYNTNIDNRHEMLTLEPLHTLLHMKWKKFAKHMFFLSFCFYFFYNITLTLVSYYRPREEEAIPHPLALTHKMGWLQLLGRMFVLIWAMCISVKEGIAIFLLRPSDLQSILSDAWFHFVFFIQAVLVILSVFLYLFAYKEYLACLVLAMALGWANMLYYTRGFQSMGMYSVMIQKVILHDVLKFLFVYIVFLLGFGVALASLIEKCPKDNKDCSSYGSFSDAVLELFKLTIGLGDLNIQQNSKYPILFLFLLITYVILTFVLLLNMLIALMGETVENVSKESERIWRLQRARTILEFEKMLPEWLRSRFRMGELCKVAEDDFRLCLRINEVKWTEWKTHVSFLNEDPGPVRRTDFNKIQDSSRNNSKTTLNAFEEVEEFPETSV

Row | IC50 [nM] | SMILES
1 | 1440 | CC(C)[C@H](CO)NCc1nc(-c2ccc3c(ccn3C)c2)ccc1F [Example 248, (2R)-2-({[3-fluoro-6-(1-methyl-1H-indol-5-yl)pyridin-2-yl]methyl}amino)-3-methylbutan-1-ol]
2 | 290 | CC(C)[C@H](CO)NCc1nc(-c2ccc(C(F)(F)F)c(Cl)c2)ccc1F [Example 47, (2R)-2-[({6-[3-chloro-4-(trifluoromethyl)phenyl]-3-fluoropyridin-2-yl}methyl)amino]-3-methylbutan-1-ol]
3 | 1260 | CC(C)[C@@H](NCc1nc(-c2ccc(C(F)(F)F)nc2)ccc1F)C(C)(C)O [Example 106, (3R)-3-({[5-fluoro-6′-(trifluoromethyl)-2,3′-bipyridin-6-yl]methyl}amino)-2,4-dimethylpentan-2-ol]
4 | 530 | CC(C)[C@H](CO)NCc1nc(C2CCC(F)(F)CC2)ccc1F [Example 203, (2R)-2-({[6-(4,4-difluorocyclohexyl)-3-fluoropyridin-2-yl]methyl}amino)-3-methylbutan-1-ol]
5 | > 20000 | CC(C)(O)[C@H](CO)NCc1ccnc(-c2ccc(C(F)(F)F)cn2)n1 [Example 197, (2S)-3-methyl-2-[({2-[5-(trifluoromethyl)pyridin-2-yl]pyrimidin-4-yl}methyl)amino]butane-1.3-diol]
6 | 1530 | CC(C)[C@H](CO)NCc1nc(N2CCC(F)(F)CC2)ncc1F [Example 231, (2R)-2-({[2-(4,4-difluoropiperidin-1-yl)-5-fluoropyrimidin-4-yl]methyl}amino)-3-methylbutan-1-ol]
7 | 750 | CC(C)Oc1cccc(-c2ccc(F)c(CN[C@@H](CO)C(C)C)n2)c1 [Example 24, (2R)-2-[({3-fluoro-6-[3-(propan-2-yloxy)phenyl]pyridin-2-yl}methyl)amino]-3-methylbutan-1-ol]
8 | 9380 | CC(C)[C@@H](CO)NCc1cccc(-c2ccc(C(F)(F)F)cc2)n1 [Example 3, (2S)-3-methyl-2-[({6-[4-(trifluoromethyl)phenyl]pyridin-2-yl}methyl)amino]butan-1-ol]
9 | 790 | CC(C)[C@H](CO)NCc1nc(C2CCC(C(C)(C)C)CC2)ccc1F (stereo partly drawn) [Example 213, (2R)-2-({[6-(4-tert-butylcyclohexyl)-3-fluoropyridin-2-yl]methyl}amino)-3-methylbutan-1-ol]
10 | 8150 | CC(O)C(C)NCc1ccnc(-c2ccc(C(F)(F)F)nc2)n1 (stereo not shown) [Example 190, 3-[({2-[6-(trifluoromethyl)pyridin-3-yl]pyrimidin-4-yl}methyl)amino]butan-2-ol]
11 | 1840 | CC(C)[C@H](CO)NCc1nc(-c2cccc(Cl)c2)ccc1F [Example 15, (2R)-2-({[6-(3-chlorophenyl)-3-fluoropyridin-2-yl]methyl}amino)-3-methylbutan-1-ol]
12 | 480 | CC(C)[C@H](CO)NCc1nc(-c2ccc3ccn(C)c3c2)ccc1F [Example 64, (2R)-2-({[3-fluoro-6-(1-methyl-1H-indol-6-yl)pyridin-2-yl]methyl}amino)-3-methylbutan-1-ol]
13 | > 20000 | C[C@@H](O)[C@H](CO)NCc1ccnc(-c2ccc(C(F)(F)F)cc2)n1 [Example 152, (2S,3R)-2-[({2-[4-(trifluoromethyl)phenyl]pyrimidin-4-yl}methyl)amino]butane-1,3-diol]
14 | 250 | Cc1cc(-c2ccc(F)c(CN[C@@H](CO)C(C)C)n2)ccc1F [Example 280, (2R)-2-({[3-fluoro-6-(4-fluoro-3-methylphenyl)pyridin-2-yl]methyl}amino)-3-methylbutan-1-ol]
15 | > 20000 | CC(C)[C@H](CO)NCc1nc(C2CCCOC2)ccc1F (stereo partly drawn) [Example 218, (2R)-2-({[3-fluoro-6-(tetrahydro-2H-pyran-3-yl)pyridin-2-yl]methyl}amino)-3-methylbutan-1-ol]
16 | 3720 | CC(C)[C@H](CO)NCc1cccc(-c2ccc(C(F)(F)F)nc2)n1 [Example 69, (2R)-3-methyl-2-({[6′-(trifluoromethyl)-2,3′-bipyridin-6-yl]methyl}amino)butan-1-ol]
17 | 230 | CC(C)[C@H](CO)NCc1nc(-c2ccc(OC(F)(F)F)cc2)ccc1F [Example 19, (2R)-2-[({3-fluoro-6-[4-(trifluoromethoxy)phenyl]pyridin-2-yl}methyl)amino]-3-methylbutan-1-ol]
18 | 960 | CC(C)[C@H](CO)NCc1nc(N2CCC(F)(F)CC2)ccc1F [Example 92, (2R)-2-({[6-(4,4-difluoropiperidin-1-yl)-3-fluoropyridin-2-yl]methyl}amino)-3-methylbutan-1-ol]
19 | 520 | CC(C)[C@H](CO)NCc1nc(-c2cc3c(OCc4ccccc4)cccc3n2C(=O)OC(C)(C)C)ccc1F [Example 259, tert-butyl 4-(benzyloxy)-2-[5-fluoro-6-({[(2R)-1-hydroxy-3-methylbutan-2-yl]amino}methyl)pyridin-2-yl]-1H-indole-1-carboxylate]
20 | 480 | CC(C)[C@H](CO)NCc1nc(-c2cccc(N3CCCC3)c2)ccc1F [Example 49, (2R)-2-[({3-fluoro-6-[3-(pyrrolidin-1-yl)phenyl]pyridin-2-yl}methyl)amino]-3-methylbutan-1-ol]

Row | IC50 [nM] | SMILES
21 | 260 | CC(C)[C@H](CO)NCc1nc(-c2cc3ccccc3[nH]2)ccc1F [Example 274, (2R)-2-({[3-fluoro-6-(1H-indol-2-yl)pyridin-2-yl]methyl}amino)-3-methylbutan-1-ol]
22 | 220 | CC(C)[C@H](CO)NCc1nc(N2CCC(C(F)(F)F)CC2)ccc1F [Example 66, (2R)-2-[({3-fluoro-6-[4-(trifluoromethyl)piperidin-1-yl]pyridin-2-yl}methyl)amino]-3-methylbutan-1-ol]
23 | 3050 | OC[C@H](NCc1ccnc(-c2ccc(C(F)(F)F)cc2)n1)C1CC1 [Example 145, (2R)-2-cyclopropyl-2-[({2-[4-(trifluoromethyl)phenyl]pyrimidin-4-yl}methyl)amino]ethanol]
24 | 1120 | CC(C)[C@H](CO)NCc1nc(-c2ccccc2F)ccc1F [Example 13, (2R)-2-({[3-fluoro-6-(2-fluorophenyl)pyridin-2-yl]methyl}amino)-3-methylbutan-1-ol]
25 | 2590 | CC(O)C(C)NCc1nc(-c2ccc(C(F)(F)F)nc2)ccc1F (stereo not shown) [Example 90, 3-({[5-fluoro-6′-(trifluoromethyl)-2,3′-bipyridin-6-yl]methyl}amino)butan-2-ol]
26 | > 20000 | CCC(O)CNCc1ccnc(-c2ccc(C(F)(F)F)cc2)n1 (stereo not shown) [Example 181, 1-[({2-[4-(trifluoromethyl)phenyl]pyrimidin-4-yl}methyl)amino]butan-2-ol]
27 | 770 | CCC1CCC(c2ccc(F)c(CN[C@@H](CO)C(C)C)n2)CC1 (stereo partly drawn) [Example 201, (2R)-2-({[6-(4-ethylcyclohexyl)-3-fluoropyridin-2-yl]methyl}amino)-3-methylbutan-1-ol]
28 | 3940 | O[C@H]1CCCC[C@@H]1NCc1nc(-c2ccc(C(F)(F)F)nc2)ccc1F [Example 122, (1S,2S)-2-({[5-fluoro-6′-(trifluoromethyl)-2,3′-bipyridin-6-yl]methyl}amino)cyclohexanol]
29 | 260 | COc1cc(-c2ccc(F)c(CN[C@@H](CO)C(C)C)n2)cc(F)c1F [Example 283, (2R)-2-({[6-(3,4-difluoro-5-methoxyphenyl)-3-fluoropyridin-2-yl]methyl}amino)-3-methylbutan-1-ol]
30 | 550 | CC(C)[C@H](CO)NCc1cccc(-c2ccc(C(F)(F)F)cc2C(F)(F)F)n1 [Example 270, (2R)-2-[({6-[2,4-bis(trifluoromethyl)phenyl]pyridin-2-yl}methyl)amino]-3-methylbutan-1-ol]
31 | > 20000 | CC(C)[C@H](CO)NCc1nc(-c2ccnn2C)ccc1F [Example 252, (2R)-2-({[3-fluoro-6-(1-methyl-1H-pyrazol-5-yl)pyridin-2-yl]methyl}amino)-3-methylbutan-1-ol]
32 | > 20000 | CC[C@H](CO)NCc1ccnc(-c2ccc(C(F)(F)F)nc2)n1 [Example 186, (2R)-2-[({2-[6-(trifluoromethyl)pyridin-3-yl]pyrimidin-4-yl}methyl)amino]butan-1-ol]
33 | 1030 | CC1CCC(c2ccc(F)c(CN[C@@H](CO)C(C)C)n2)CC1 (stereo partly drawn) [Example 200, (2R)-2-({[3-fluoro-6-(4-methylcyclohexyl)pyridin-2-yl]methyl}amino)-3-methylbutan-1-ol]
34 | > 20000 | CC(C)[C@H](NCc1nc(-c2ccc(C(F)(F)F)nc2)ccc1F)C(N)=O [Example 119, (S)-2-((5-fluoro-6′-(trifluoromethyl)-2,3′-bipyridin-6-yl)methylamino)-3-methylbutanamide]
35 | 680 | OCC1(NCc2nc(-c3ccc(C(F)(F)F)cc3)ccc2F)CCCCC1 [Example 81, {1-[({3-fluoro-6-[4-(trifluoromethyl)phenyl]pyridin-2-yl}methyl)amino]cyclohexyl}methanol]
36 | > 20000 | CC(C)[C@H](CO)NCc1ccnc(-c2ccc(C(F)(F)F)cn2)n1 [Example 192, (2R)-3-methyl-2-[({2-[5-(trifluoromethyl)pyridin-2-yl]pyrimidin-4-yl}methyl)amino]butan-1-ol]
37 | 170 | CC(C)[C@H](CO)NCc1cccc(C#Cc2ccc(F)cc2)n1 [Example 264, (2R)-2-[({6-[(4-fluorophenyl)ethynyl]pyridin-2-yl}methyl)amino]-3-methylbutan-1-ol]
38 | 1110 | CC(C)[C@H](CO)NCc1nc(-c2cccc(C(F)(F)F)c2)ccc1F [Example 16, (2R)-2-[({3-fluoro-6-[3-(trifluoromethyl)phenyl]pyridin-2-yl}methyl)amino]-3-methylbutan-1-ol]
39 | 630 | CC(C)[C@H](CO)NCc1nc(-c2ccc(C(F)(F)F)nc2)ccc1Cl [Example 110, (2R)-2-({[5-chloro-6′-(trifluoromethyl)-2,3′-bipyridin-6-yl]methyl}amino)-3-methylbutan-1-ol]
40 | 680 | CC(C)[C@H](CO)NCc1ccnc(-c2ccc(S(=O)(=O)C(F)(F)F)cc2)n1 [Example 207, (2R)-3-methyl-2-{[(2-{4-[(trifluoromethyl)sulfonyl]phenyl}pyrimidin-4-yl)methyl]amino}butan-1-ol]
